The values that follow come from US8372412B2, “Bioassay and peptides for use therein” (Rapid Biosensor Systems Limited, priority 2005, dated 2013).

“Also recorded” adds a separate entry of the source.

Data set [1] deals with antisera (from rabbit) to the p3 18-mer (SEQ ID 11). Briefly: Epitope Mapping ELISA (competitive ELISA against plate-coated p3 18-mer P779). The following applies: plates coated with 2 μM P779, competing peptides 500 μM, four-fold serial dilution, antisera 1:250. It is filed as binding. The procedure: (§1) These peptides, along with the p3 18-mer (SEQ ID 11) were screened against antisera (from rabbit) to the p3 18-mer (SEQ ID 11). The screen utilized the competitive ELISA (Enzyme-linked immunosorbant assay) technique, which was used to assess the relative binding affinities of the 9-mer peptides to the 18-mer peptide.
(§2) Briefly, the assay involved binding (coating) the p3 18-mer (P779, SEQ ID 11) to ELISA plates, followed by incubation with variables amounts of competing ligand (9-mers, SEQ ID 1-10) with the antisera (1:250 dilution). The level of binding of the antisera to p3 18-mer (P779, SEQ ID 11) was indicated by treatment with goat anti-rabbit peroxidase conjugated antibody and then by addition of a chromogenic substrate ABTS (2,2-azino-di-[3-ethylbenzthiazoline sulphonate]) and hydrogen peroxide where upon a green colour developed which was recorded as an optical density (absorbance) on a plate reader. The colour development is proportional to the level of binding of the primary antisera bound to the plate.
A test ELISA was performed in order to ascertain the concentrations of coating peptide and competing peptides for the ELISA experiments, comprising a competitive ELISA of 9-mer P782-1 ([…])—SEQ ID 1—against 18-mer P779 ([…])—SEQ ID 11 (Mustafa, A. S. et al, supra). This 9-mer was chosen as it also overlaps with the p2 18-mer ([…])—SEQ ID 12. […]

For data set [2] the test system is unchanged. Briefly: Targeted Epitope ELISA (competitive ELISA against plate-coated p3 18-mer P779). Type of data set: binding. The following applies: for binding to the antisera relative to the p3 18-mer: competitive ELISA as before, 6-mers and re-tested 9-mer P782-10. The procedure: as §1, §2
A test ELISA was performed in order to ascertain the concentrations of coating peptide and competing peptides for the ELISA experiments, comprising a competitive ELISA of 9-mer P782-1 ([…])—SEQ ID 1—against 18-mer P779 ([…])—SEQ ID 11 (Mustafa, A. S. et al, supra). This 9-mer was chosen as it also overlaps with the p2 18-mer ([…])—SEQ ID 12. […] ELISA plates were coated with 2 μM solution of p3 18-mer (P779)—SEQ ID 11—and used 500 μM solutions of competing peptides, which were then subjected to four-fold serial dilution.
A Targeted Epitope ELISA was then designed to test the importance of the C-terminal region of the epitope on binding to the antisera. Two 6-mers were synthesized, P782-11 (GNNSPA)—SEQ ID 13—and P782-12 (NNSPAV)—SEQ ID 14, which are truncated forms of their respective 9-mers and subjected these to competitive ELISA as before and also re-tested the 9-mer P782-10 (SEQ ID 10) identified as a significant epitope in the Epitope Mapping ELISA.
(In general: An ELISA detects its analyte on a solid surface through an enzyme-linked reagent.)

Data set [3] in a line: Heat stability of peptide variants. Type of data set: physicochemical. The settings on record: C-terminal variants of SGGNNSPA-X; no method or data given.

As for “SGGNNSPAV (listed as Mycobacterium tuberculosis) [P782-10]”, the entries for the “binding to the antisera relative to the p3 18-mer” value in data set [1] and in data set [2] were “bound to the antisera as tightly as the p3 18-mer peptide” and “bound to the antisera as tightly as the p3 18-mer peptide P779”, respectively. As for “SGGNNSPAA (Modification (at position 9) of native Mycobacterium tuberculosis sequence) [SEQ ID 15]”, the heat stability result in data set [3] is “particularly good Leu-heat stability; also recorded: increased heat stability”. As for “QSGGNNSPA (listed as Mycobacterium tuberculosis) [P782-9]”, in data set [1], the “binding to the antisera relative to the p3 18-mer” value is “no significant binding”. Turning to “NNSPAV (listed as Mycobacterium tuberculosis) [P782-12]”, in data set [2] (competitive ELISA, relative binding affinity), the “binds to the antisera less tightly relative to either 9-mer P782-10 or 18-mer P779” value came out at 1.99 fold. “GNNSPA (listed as Mycobacterium tuberculosis) [P782-11]”: the “binding to the antisera relative to the p3 18-mer” value in data set [2] was “did not bind to the antisera”.
